Results as given in patent US11365215B2, “Method for preventing, improving, or treating inflammatory bowel disease” (Research & Business Foundation Sungkyunkwan University, priority 2015, dated 2022).
Peptide text beside a SMILES is read from it.

What was measured:
interleukin-6 = assay: Suppression of LPS-induced IL-6 expression in RAW 264.7 macrophage cells (RT-PCR, Real-Time PCR); format: cell-based
Method: (§1) First, RAW 264.7 macrophage cells were purchased from American Type Culture Collection (ATCC; Manassas, Va.), and were culture at a temperature of 37° C., under 5% CO2 atmosphere, using 10% Fetal Bovine Serum (FBS) and Dulbecco's Modified Eagle's Medium (DMEM) containing 1% penicillin/streptomycin.
The cultured RAW 264.7 macrophage cells were divided into a 6-well cell culture plate. After 24 hours, the cells were pretreated with compound 1.1 (SEQ ID NO: 2), compound 1.2, and smaducin-6, respectively, in a concentration of 100 nM for 30 min, and further treated with lipopolysaccharides (LPS) for two hours. These cells were collected using TRIzol® and the RNA was extracted. From 2 μg of the extracted RNA, cDNAs (complementary deoxyribonucleic acids) were synthesized and reverse transcription polymerase chain reactions (RT-PCR) and real-time polymerase chain reactions (Real-Time PCR) were performed. Samples from the RT-PCR were confirmed by electrophoresis on agarose gels and quantified using densitometer. A glyceraldehyde 3-phosphate dehydrogenase (GAPDH) gene was used as a loading control for the interleukin-6 gene.
RAW 264.7 macrophage cells were treated with varying concentrations of compound 1.1 (SEQ ID NO: 2) from 50 pM to 500 nM for 30 minutes, and treated with 100 ng/mL of LPS for two hours.

[1] = test system: ARPE-19 cells (Nox-4, VEGF, VEGFR1, VEGFR2, Ang1, Ang2, Tie-2, EPO, EPOR); assay: Western blot of angiogenesis related factors in high-glucose ARPE-19 cells; format: cell-based, human; details: 30 mM glucose 48 hours, 10 nM and 50 nM
Method: ARPE-19 cells were treated with 5.5 mM of glucose as reference control. For experiment group, the ARPE-19 cells were treated with 30 mM of glucose for 48 hours to induce high blood glucose condition, and simultaneously treated with DMSO, compound 1.1 (SEQ ID NO: 2) (10 nM), and compound 1.1 (SEQ ID NO: 2) (50 nM). Changes in expression of Nox-4, VEGF, VEGFR1, VEGFR2, Ang1, Ang2, Tie-2, EPO, and EPOR proteins were measured by Western blot analysis.

[2] = test system: G-CSF, IL-2, SCF, VEGF, CX3CL1, IGFBP5, IGFBP6, IL-1α, IL-1β, IL-6, IL-9, MCP-1, MIP-3α, IL12p40/70, MIG, TNF-α, and VCAM-1; assay: Cytokine array (Mouse cytokine array C3) of LPS-treated RAW 264.7 macrophage cells; format: cell-based; details: 100 nM for 30 minutes, LPS two hours, densitometer
Method: as §1
In addition, RAW 264.7 macrophage cells cultured as described above were also divided into a 6-well plate, after 24 hours, were pretreated with 100 nM of compound 1.1 (SEQ ID NO: 2) for 30 minutes, and further treated with LPS for two hours. The above cell culture was collected and, using a cytokine array (Mouse cytokine array C3, RayBiotech), changes in amounts of cytokine and chemokine were quantified by a densitometer. The cytokines and chemokines detected by the compound of the present invention included G-CSF, IL-2, SCF, VEGF, CX3CL1, IGFBP5, IGFBP6, IL-1α, IL-1β, IL-6, IL-9, MCP-1, MIP-3α, IL12p40/70, MIG, TNF-α, and VCAM-1.

HRMEC cells = assay: VEGF-induced tube formation in HRMEC cells; format: cell-based; details: HRMEC on Matrigel; 20 ng/ml VEGF 4 hours; 50 nM
Method: To evaluate the effect of compound 1.1 (SEQ ID NO: 2) on tube formation during angiogenesis, HRMEC cells ([…]) were cultured on Matrigel coated micro slides and treated with 20 ng/ml of VEGF for 4 hours to induce the tube formation. Simultaneously, for reference group, the cells were treated with DMSO, and for experimental group, the cells were treated with 50 nM of compound 1.1 (SEQ ID NO: 2) and 1 uM of calcein-AM. The cells were observed using fluorescence microscope.

NF-κB = assay: 5×NF-κB-Luc reporter luciferase assay in LPS-treated RAW 264.7 cells; format: cell-based; details: 100 nM for 30 minutes, LPS 100 ng/ml two hours
Method: Specifically, 5×NF-κB-Luc reporter plasmid was transfected into RAW 264.7 cells using Effectene (Qiagen, USA). The transfected cells were pretreated with 100 nM of compound 1.1 (SEQ ID NO: 2) for 30 minutes, and further treated with LPS (100 ng/ml) for two hours, and luciferase activity in the cells was measured (FIG. 4 depicts a graph showing relative inhibition activities of compound 1.1 (SEQ ID NO: 2) and compound 1.2 to NF-κB activation). When the cells were treated with compound 1.1 (SEQ ID NO: 2) and compound 1.2 according to the present invention, activation of NF-κB, which was induced by LPS, was inhibited (FIG. 4).
In addition, 5×NF-κB-Luc reporter plasmid was transfected into RAW 264.7 macrophage cells and treated with compounds of the present invention, as described above. After 24 hours of the transfection, the cells were pretreated with DMSO (control), compound 1.1 (SEQ ID NO: 2), reference compound 1 (SEQ ID NO: 16) (compound where palmitic acid is removed from compound 1.1 (SEQ ID NO: 2)), and smaducin-6 were treated at various concentrations of 100 pM, 1 nM, and 100 nM for 30 minutes, and then the cells were treated with 100 ng/ml of LPS for two hours.
Specifically, 5×NF-κB-Luc reporter plasmid, SBE-Luc reporter plasmid, and BRE-Luc reporter plasmid were individually transfected into Raw 264.7 macrophage cells. After 24 hours, the cells transfected with the NF-κB-Luc reporter plasmid were treated with 100 ng/mL of LPS, the cells transfected with the SBE-Luc reporter plasmid were treated with 5 ng/mL of TFG-β1, and the cells transfected with the BRE-Luc reporter plasmid were treated with 100 ng/mL of BMP6 for two hours.
As described in Example 2.3, 5×NF-κB-Luc reporter plasmid was transfected into RAW 246.7 macrophage cells. After 24 hours, the cells transfected with NF-κB-Luc reporter plasmid were pretreated with compound 1.1 (SEQ ID NO: 2) (100 nM), interleukin-1-receptor-associated-kinase-1/4 inhibitor (IRAK1/4) inhibitor (25 μM, CAS 509093-47-4), and smaducin-6 (100 nM) for 30 minutes, and then further treated with LPS (100 ng/ml) for 2 hours. Subsequently, luciferase activities in the cells were measured.

CCCCCCCCCCCCCCCC(=O)N1CCC[C@H]1C(=O)N1CCC[C@H]1C(=O)NCC(=O)N[C@@H](Cc1ccc(O)cc1)C(=O)O [compound 1.1, (S)-3-(4-hydroxyphenyl)-2-(2-((S)-1-((S)-1-palmitoylpyrrolidine-2-carbonyl)pyrrolidine-2-carboxamido)acetamido)propanoic acid] (HELM PEPTIDE1{[CCCCCCCCCCCCCCCC(=O)[*:2]].P.P.G.Y}$$$$V2.0)
IC50 (interleukin-6; Mus musculus, RAW264.7, 50 pM to 500 nM for 30 minutes, 100 ng/mL LPS two hours, read-out: concentration where the expression of interleukin-6 was suppressed to 50% or below (IC50)): ~1.6 nM | expression of interleukin-6 induced by LPS treatment (interleukin-6; pretreated 100 nM for 30 min, LPS two hours, compared to untreated sample): suppressed | expression of Ang1 and Tie-2 [1]: increased according to increased concentration | expression of Nox4, VEGF, VEGFR1,2, Ang2, EPO and EPOR [1]: reduced | expression of cytokines and chemokines induced by LPS (G-CSF, IL-2, SCF, VEGF, CX3CL1, IGFBP5, IGFBP6, IL-1α, IL-1β, IL-6, IL-9, MCP-1, MIP-3α, IL12p40/70, MIG, TNF-α, VCAM-1) [2]: suppressed as statistically meaningful | tube formation (HRMEC cells): suppressed tube formation | inhibition of the activity of NF-κB induced by LPS, dose dependence (NF-κB; 100 pM, 1 nM): increased as dose of compound 1.1 (SEQ ID NO: 2) increased | activation of NF-κB induced by LPS (luciferase activity) (NF-κB): inhibited
